# Laboratory results as given in patent publication US11364260B2, “Methods and compositions for administration of iron” (American Regent, Inc., priority 2006, dated 2022).
# Like-named read-outs stand apart in the source and are kept apart here.
# Key:
# subjects with anemia [1] = assay: Integrated safety studies (10 clinical studies A-J)
# Source text: (§3) Study A was a single-center, single-dose escalation, randomized, double-blind, placebo-controlled pharmacokinetic study. Subjects were male and female, between 18 and 45 years of age, inclusive, with mild iron-deficiency anemia. […] Examined pharmacokinetic parameters included total serum iron and pharmacodynamic (serum ferritin and transferrin, iron binding capacity, % TSATpost, hemoglobin, reticulocyte, and serum transferrin receptor concentrations) endpoints. Examined safety parameters included adverse events, clinical laboratory evaluations, vital signs, ECG, and physical examinations.
# (§4) Study B was a single-center, single-dose, open label, uncontrolled pharmacokinetic study. Subjects were between 18 and 75 years of age with iron-deficiency or renal anemia with no other cause of anemia. Inclusion criteria included hemoglobin concentration between 9 and 13 g/dL, no blood transfusions in the previous 3 months, and no history of treatment with intravenous iron in the last 2 weeks. […] Examined primary pharmacokinetic parameters included the distribution of ^52Fe and incorporation of ^59Fe into red blood cells. Examined safety parameters included adverse events, clinical laboratory evaluations, vital signs, and physical examinations.
# (§5) Study C was an open-label, multicenter, randomized, multiple-dose, active-controlled postpartum anemia study. […] Where screening serum transferrin saturation (TSAT) was 20% or screening ferritin was 50 ng/mL, dosage=pre-pregnancy weight (kg)×(15−baseline hemoglobin [g/dL])×2.4+500 mg. Where screening TSAT was >20% and screening ferritin was >50 ng/mL, dosage=pre-pregnancy weight (kg)×(15−baseline hemoglobin [g/dL])×2.4. […] For primary efficacy, “success” was defined as an increase in hemoglobin of ≥2 g/dL anytime between baseline and end of study or time of intervention, while “failure” was defined as <2 g/dL increase in hemoglobin at all times between baseline and end of study or time of intervention. Examined safety parameters included adverse events, clinical laboratory evaluations, vital signs, and physical examinations.
# (§6) Study D was a multicenter, open-label, randomized, active-controlled, multiple-dose postpartum anemia study. Subjects were adult women ≥18 years old with postpartum anemia within 6 days after delivery. Treatment was administered once-weekly for a maximum of 3 infusions. […] Patients ≤66 kg received a minimum dose of 200 mg and a maximum dose of 15 mg iron/kg during each infusion. Patients >66 kg received a dose of 1000 mg on the first dosing occasion, and a minimum dose of 200 mg and a maximum dose of 1000 mg at each subsequent dosing. Doses of 200-400 mg were diluted in 100 cc NSS and 500-1000 mg were diluted in 250 cc NSS. Primary efficacy was examined as change from baseline levels of hemoglobin to Week 12. Examined safety parameters included adverse events in the mother and breast-fed infant, adverse events leading to discontinuation of treatment, vital signs, 12-lead electrocardiogram (ECG), physical examinations, and clinical laboratory panels.
# (§7) Study E was a multicenter, open-label, randomized, active-controlled, multiple-dose hemodialysis-associated anemia study.
# subjects with anemia [2] = conditions: human, in vivo
# Source text: as §3, §4, §5, §6, §7
# [3] = in vivo; cited from earlier work
# [4] = isotonic; cited from earlier work
# [5] = light scattering; cited from earlier work
# [6] = tested on: patients receiving regular hemodialysis; assay: Multiple dose efficacy study in patients receiving regular hemodialysis; type: in vivo, human
# Source text: However, elevated levels of ferritin and TfS indicating iron overload were avoided. In both of these studies, there was a gradual decrease in transferrin over time, also indicating successful iron replacement.
# rats [7] = assay: Pre-clinical 13-week cumulative dose study in rats; type: in vivo; conditions: over 13 weeks
# [8] = tested on: patients with iron deficiency anemia or renal anemia; assay: Safety assessments in patients with iron deficiency anemia and renal anemia; type: in vivo, human
# patients = assay: Efficacy studies: pharmacodynamic effects (serum iron, TfS, serum ferritin); type: in vivo, human; conditions: single and repeated doses
# Source text: The increase in serum ferritin levels illustrated the replenishment of the depleted iron stores, which is a well-identified and desired effect of iron therapy.
# dogs [9] = assay: Single-dose toxicity studies, intravenous, dogs; type: in vivo
# dextran antibodies = assay: Reaction with dextran antibodies / dextran antigenicity test
# rodents = assay: Single-dose toxicity studies, intravenous, rodents; type: in vivo
# [10] = Single dose toxicity (LD50, acute toxicity); conditions: in vivo
# [11] = In vitro and in vivo mutagenicity tests
# rats [12] = assay: Single dose toxicity in rats; type: in vivo
# patients (Hb levels) = assay: Multiple dose efficacy study, Cohorts 1 and 2 (Hb levels); type: in vivo, human
# Source text: Efficacy of iron replacement therapy is interpreted mainly in terms of the ability to normalize Hb levels and iron stores. […] In one study, 37% and 48% of patients in Cohorts 1 and 2, respectively, had achieved normal Hb levels at the 4-week follow-up visit, and 75% and 73%, respectively, had achieved a ≥20 g/L increase in Hb on at least 1 occasion.
# [13] = PET pharmacokinetic study of 52Fe/59Fe labelled VIT-45 after i.v. administration; type: in vivo, human
# Source text: See e.g., Beshara et al. (2003) Br. J. Haematol. 120(5): 853-859.
# (§1) There was negligible renal elimination.
# [14] = pH and osmolarity of the iron carbohydrate complex; type: physicochemical
# Source text: (§2) It is within the skill of the art to test various characteristics of iron carbohydrate complexes as so determine amenability to use in the methods described herein. For example, pH and osmolarity are straightforward determinations performed on a sample formulation. Likewise, techniques such as electron micrograph imaging, transmission electron microscopy, and atomic force microscopy provide direct methods to analyze both iron core and particle size. See e.g., FIG. 1; Table 1. The stability of the carbohydrate complex can be assessed through physicochemical properties such as kinetic characteristics, thermodynamic characteristics, and degradation kinetics. See, Geisser et al. (1992) Arzneimittelforschung 42(12):1439-1452. Useful techniques to assess physical and electronic properties include absorption spectroscopy, X-ray diffraction analysis, transmission electron microscopy, atomic force microscopy, and elemental analysis. See, Kudasheva et al. (2004) J. Inorg. Biochem. 98:1757-1769. Pharmacokinetics can be assessed, for example, by iron tracer experiments. Hypersensitivity reactions can be monitored and assessed as described in, for example, Bailie et al. (2005) Nephrol. Dial. Transplant 20(7):1443-1449. Safety, efficacy, and toxicity in human subjects can be assessed, for example, as described in Spinowitz et al. (2005) Kidney Intl. 68:1801-1807.
# [15] = Pharmacokinetic studies (total serum iron) in patients with iron deficiency anemia; type: in vivo, human
# Source text: as §1
# rabbit = assay: Intra-arterial, perivenous, intravenous tolerance studies; type: in vivo
# mice = assay: Single dose toxicity in mice
# [16] = Iron (III) Control Release Test; type: physicochemical
# dogs [17] = assay: Pre-clinical 13-week cumulative dose study in dogs; type: in vivo; conditions: over 13 weeks
# [18] = Core and particle size of iron carbohydrate complexes (electron micrographs); type: physicochemical
# Source text: FIG. 1A-FIG. 1C are a series of electron micrographs that depict the particle size of three iron carbohydrate complexes. […] FIG. 1B is an electron micrograph depicting the particle size of Venofer® (an iron sucrose).
# as §2, with “Useful techniques to assess physical and electronic properties include absorption spectroscopy, X-ray diffraction analysis, transmission electron microscopy, atomic force microscopy, and elemental analysis. See, Kudasheva et al. (2004) J. Inorg. Biochem. 98:1757-1769.” left out, “Dial. Transplant 20(7):1443-1449.” left out, “68:1801-1807.” left out
# [19] = calculated dose/first-dose 1,000 mg studies
substance,measurement,setting,value
"ferrous sulfate [oral iron, reference compound]",incidence of premature discontinuation due to adverse events,subjects with anemia [1],3.1%
same,incidence of adverse events associated with investigations,subjects with anemia [1]; [19],3.9%
same,incidence of gastrointestinal disorders,subjects with anemia [1]; [19],31.0%
same,incidence of skin and subcutaneous tissue disorders,subjects with anemia [1]; [19],2.4%
same,incidence of treatment-emergent adverse events on the first day of dosing,subjects with anemia [1]; [19],2.7%
same,overall incidence of treatment-emergent adverse events,subjects with anemia [1]; [19],51.2%
same,incidence of adverse events leading to discontinuation,subjects with anemia [1]; completed multicenter studies,2.1%
same,incidence of gastrointestinal events,subjects with anemia [1]; completed multicenter studies,31.0%
same,incidence of premature discontinuations,subjects with anemia [1]; completed multicenter studies,9.6%
same,overall incidence of treatment-emergent adverse events,subjects with anemia [1]; completed multicenter studies,51.2%
same,incidence of drug-related treatment-emergent adverse events of hypersensitivity,subjects with anemia [2],0.2%
polyglucose sorbitol carboxymethyl ether-coated non-stoichiometric magnetite [ferumoxytol],blood half-life,[3],10 to 14 h
same,osmolarity,[4],297 mOsm/kg
same,average colloidal particle size,[5],about 30 nm
"polynuclear iron (III)-hydroxide 4(R)-(poly-(1→4)-O-α-D-glucopyranosyl)-oxy-2(R),3(R),5(R),6-tetrahydroxy-hexanoate [VIT-45]",patients who achieved an increase of Hb of ≥10 g/L at any point during the study,[6],61.7%
same,"cumulative dose with no observed adverse effect level (clinical signs of iron accumulation in liver, spleen, kidneys)",rats [7],up to 117 mg iron/kg body weight
same,iron overload,[8]; dosing schedules of the studies,Iron overload was avoided
same,deaths attributed to treatment,[8]; repeated-dose studies,no deaths
same,laboratory values reported as treatment-related treatment-emergent adverse events,[8]; repeated-dose studies,6 patients
same,patients who experienced serious adverse events (considered not related),[8]; repeated-dose studies,10 patients
same,withdrawals considered possibly related to treatment (allergic skin reactions),[8]; repeated-dose studies,2 withdrawals
same,serious adverse events or withdrawals due to adverse events,[8]; single-dose studies,no serious adverse events or withdrawals
same,main pharmacodynamic effects,patients,"transient elevations of serum iron levels, TfS and serum ferritin"
same,"safe and tolerated intravenous dose relative to 1,000 mg iron once weekly in humans",dogs [9],up to 60 times
same,incidence of premature discontinuation due to adverse events,subjects with anemia [1],2.1%
same,treatment-emergent adverse event: abdominal pain,subjects with anemia [1]; 1095 VIT-45 subjects,2.5%
same,treatment-emergent adverse event: blood phosphate decreased,subjects with anemia [1]; 1095 VIT-45 subjects,2.4%
same,treatment-emergent adverse event: headache,subjects with anemia [1]; 1095 VIT-45 subjects,8.6%
same,treatment-emergent adverse event: hypertension,subjects with anemia [1]; 1095 VIT-45 subjects,2.2%
same,treatment-emergent adverse event: hypotension,subjects with anemia [1]; 1095 VIT-45 subjects,2.0%
same,treatment-emergent adverse event: nasopharyngitis,subjects with anemia [1]; 1095 VIT-45 subjects,2.0%
same,treatment-emergent adverse event: nausea,subjects with anemia [1]; 1095 VIT-45 subjects,2.4%
same,incidence of other serious adverse events,subjects with anemia [1]; all completed multicenter studies,3%
same,drug-related treatment-emergent adverse event: blood phosphate decreased,subjects with anemia [1]; [19],3.3%
same,drug-related treatment-emergent adverse event: headache,subjects with anemia [1]; [19],3.9%
same,incidence of adverse events associated with investigations,subjects with anemia [1]; [19],9.1%
same,incidence of gastrointestinal disorders,subjects with anemia [1]; [19],15.2%
same,incidence of skin and subcutaneous tissue disorders,subjects with anemia [1]; [19],7.3%
same,incidence of treatment-emergent adverse events on the first day of dosing,subjects with anemia [1]; [19],6.8%
same,overall incidence of treatment-emergent adverse events,subjects with anemia [1]; [19],49.5%
same,incidence of adverse events leading to discontinuation,subjects with anemia [1]; completed multicenter studies,1.8%
same,incidence of gastrointestinal events,subjects with anemia [1]; completed multicenter studies,12.8%
same,incidence of premature discontinuations,subjects with anemia [1]; completed multicenter studies,10%
same,overall incidence of treatment-emergent adverse events,subjects with anemia [1]; completed multicenter studies,49.5%
same,serious adverse events or withdrawals due to related adverse events,"subjects with anemia [1]; open label clinical trials, about 1700 subjects, up to 1,000 mg over 15 minutes i.v.",no serious adverse events or withdrawals
same,incidence of other serious adverse events,"subjects with anemia [1]; placebo-controlled, single-dose crossover study",0.3%
same,time after initial dose at which decreases in blood phosphate were apparent,"subjects with anemia [1]; transient, asymptomatic",approximately 7 days
same,reaction with dextran antibodies,dextran antibodies,does not react with dextran antibodies
same,specific responses in dextran antigenicity test,dextran antibodies,no specific responses
same,"safe and tolerated intravenous dose relative to 1,000 mg iron once weekly in humans",rodents,up to 60 times
same,acute toxicity relative to iron sucrose,[10],one-fifth
same,"clastogenic, mutagenic, chromosomal damage or bone marrow cell toxicity",[11],no evidence
same,highest non-lethal dose level,rats [12],1000 mg iron/kg b.w.
same,patients who achieved a ≥20 g/L increase in Hb on at least 1 occasion,patients (Hb levels); Cohort 1,75%
same,patients who achieved normal Hb levels,"patients (Hb levels); Cohort 1, 4-week follow-up visit",37%
same,patients who achieved a ≥20 g/L increase in Hb on at least 1 occasion,patients (Hb levels); Cohort 2,73%
same,patients who achieved normal Hb levels,"patients (Hb levels); Cohort 2, 4-week follow-up visit",48%
same,calculated terminal half-life (t1/2),"[13]; i.v., patients",approximately 16 hours
same,distribution after intravenous administration,"[13]; in vivo, iv","mainly found in the liver, spleen, and bone marrow"
same,osmolarity,[14],physiological osmolarity
same,maximal total serum iron concentration (Cmax),[15]; 500 mg dose,approximately 150 μg/mL
same,maximal total serum iron concentration (Cmax),[15]; 1000 mg dose,~320 µg/mL
same,renal elimination,"[15]; human, in vivo",negligible
same,treatment-related local tissue irritation,rabbit,No treatment-related local tissue irritation
same,highest non-lethal dose level,mice,1000 mg iron/kg b.w.
same,signs of illness,mice; single dose 250 mg iron/kg b.w. injected within 2 seconds,no signs of illness
same,Iron (III) Control Release Test T75,[16],117.8 min
same,"cumulative dose with no observed adverse effect level (clinical signs of iron accumulation in liver, spleen, kidneys)",dogs [17],up to 117 mg iron/kg body weight
same,changes in vital signs evaluations,subjects with anemia [2],no clinically meaningful changes
same,deaths attributed to treatment,subjects with anemia [2],no deaths
same,drug-related mild or moderate hypotension,subjects with anemia [2],0.2%
same,"drug-related mild or moderate hypotension, number of subjects",subjects with anemia [2],4 subjects
same,incidence of drug-related treatment-emergent adverse events of hypersensitivity,subjects with anemia [2],0.2%
same,median time to recovery of blood phosphate,subjects with anemia [2],approximately 2 weeks
same,"overall incidence of treatment-emergent adverse events, 200 mg versus 1000 mg doses",subjects with anemia [2],similar
same,"treatment-emergent adverse events indicative of potential allergic reactions (rash, pruritus, urticaria)",subjects with anemia [2],< 2%
same,"Size of the Particle +/- SEM, Iron core",[18],4.4 ± 1.4 nm
same,"Size of the Particle +/- SEM, Total Particle",[18],6.7 ± 2.5 nm
